According to the kinase profiling compilation of Christmann-Franck et al. (2016):

Key:
Test in all cases: radiometric filter-binding kinase assay
PHKG1 (human) = PHKG1 (human) (UniProt Q16816)
RIPK2 (human) = RIPK2 (human) (UniProt O43353)
MINK1 (human) = MINK1 (human) (UniProt Q8N4C8)
PRKAA1 or PRKAA2 (rat) = conditions: accession and sequence are those of the human protein
INSRR (human) = INSRR (human) (UniProt P14616); conditions: compound 1.0 µM
MAPK15 (human) = MAPK15 (human) (UniProt Q8TD08)
SRPK1 (human) = SRPK1 (human) (UniProt Q96SB4)
Sequence of SRPK1 (human) (Q96SB4 whole entry, looked up): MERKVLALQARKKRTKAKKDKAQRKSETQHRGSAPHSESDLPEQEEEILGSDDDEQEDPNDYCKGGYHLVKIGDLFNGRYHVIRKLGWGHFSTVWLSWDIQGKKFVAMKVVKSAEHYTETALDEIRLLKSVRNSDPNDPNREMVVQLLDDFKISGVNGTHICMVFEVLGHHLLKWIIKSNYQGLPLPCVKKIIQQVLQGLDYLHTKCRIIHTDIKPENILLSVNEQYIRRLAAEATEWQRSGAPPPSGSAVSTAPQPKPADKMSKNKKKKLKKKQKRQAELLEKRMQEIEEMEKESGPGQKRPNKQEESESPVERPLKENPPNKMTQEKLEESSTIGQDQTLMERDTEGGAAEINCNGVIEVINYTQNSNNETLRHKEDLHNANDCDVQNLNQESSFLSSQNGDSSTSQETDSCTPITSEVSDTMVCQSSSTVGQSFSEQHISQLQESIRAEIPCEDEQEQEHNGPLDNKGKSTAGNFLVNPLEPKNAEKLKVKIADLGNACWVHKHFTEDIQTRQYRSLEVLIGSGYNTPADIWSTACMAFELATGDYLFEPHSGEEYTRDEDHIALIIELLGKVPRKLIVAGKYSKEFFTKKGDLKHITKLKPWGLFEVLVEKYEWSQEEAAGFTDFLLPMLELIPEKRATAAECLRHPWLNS

PRKCA (human) = PRKCA (human) (UniProt P17252)
MARK2 (human) = MARK2 (human) (UniProt Q7KZI7)
JAK2 JH1 JH2 (human) = JAK2 JH1 JH2 (human) (UniProt O60674)
Sequence of JAK2 JH1 JH2 (human) (O60674 whole entry, looked up): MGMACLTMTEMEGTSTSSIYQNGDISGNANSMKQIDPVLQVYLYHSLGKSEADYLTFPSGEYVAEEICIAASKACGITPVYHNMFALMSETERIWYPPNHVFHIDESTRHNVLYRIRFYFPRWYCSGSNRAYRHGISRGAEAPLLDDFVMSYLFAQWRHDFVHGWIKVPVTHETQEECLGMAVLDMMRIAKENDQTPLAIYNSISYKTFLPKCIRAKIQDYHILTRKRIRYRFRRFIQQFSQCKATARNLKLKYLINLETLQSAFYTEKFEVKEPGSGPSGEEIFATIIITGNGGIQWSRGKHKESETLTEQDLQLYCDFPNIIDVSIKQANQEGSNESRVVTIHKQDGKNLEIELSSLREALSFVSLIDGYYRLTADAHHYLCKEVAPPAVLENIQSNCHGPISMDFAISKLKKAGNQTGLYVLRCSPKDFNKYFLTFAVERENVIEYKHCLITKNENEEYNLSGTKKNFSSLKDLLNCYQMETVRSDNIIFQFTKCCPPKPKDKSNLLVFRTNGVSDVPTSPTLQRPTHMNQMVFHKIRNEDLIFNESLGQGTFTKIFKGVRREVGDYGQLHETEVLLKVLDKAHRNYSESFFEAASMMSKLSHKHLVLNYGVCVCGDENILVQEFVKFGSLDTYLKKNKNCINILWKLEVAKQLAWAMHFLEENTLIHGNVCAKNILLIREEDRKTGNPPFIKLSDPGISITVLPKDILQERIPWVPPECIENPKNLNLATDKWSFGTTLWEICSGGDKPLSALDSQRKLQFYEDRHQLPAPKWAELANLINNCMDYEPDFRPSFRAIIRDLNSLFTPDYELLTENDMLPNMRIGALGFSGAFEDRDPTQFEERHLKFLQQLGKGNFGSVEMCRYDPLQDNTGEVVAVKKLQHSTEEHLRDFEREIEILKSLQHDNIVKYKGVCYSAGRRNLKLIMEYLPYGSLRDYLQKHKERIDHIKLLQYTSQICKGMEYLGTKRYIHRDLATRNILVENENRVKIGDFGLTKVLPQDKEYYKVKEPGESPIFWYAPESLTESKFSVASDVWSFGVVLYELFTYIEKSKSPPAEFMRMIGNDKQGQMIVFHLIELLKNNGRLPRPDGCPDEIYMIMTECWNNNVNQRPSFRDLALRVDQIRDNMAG

MARK1 (human) = MARK1 (human) (UniProt Q9P0L2)
Sequence of MARK1 (human) (Q9P0L2 whole entry, looked up): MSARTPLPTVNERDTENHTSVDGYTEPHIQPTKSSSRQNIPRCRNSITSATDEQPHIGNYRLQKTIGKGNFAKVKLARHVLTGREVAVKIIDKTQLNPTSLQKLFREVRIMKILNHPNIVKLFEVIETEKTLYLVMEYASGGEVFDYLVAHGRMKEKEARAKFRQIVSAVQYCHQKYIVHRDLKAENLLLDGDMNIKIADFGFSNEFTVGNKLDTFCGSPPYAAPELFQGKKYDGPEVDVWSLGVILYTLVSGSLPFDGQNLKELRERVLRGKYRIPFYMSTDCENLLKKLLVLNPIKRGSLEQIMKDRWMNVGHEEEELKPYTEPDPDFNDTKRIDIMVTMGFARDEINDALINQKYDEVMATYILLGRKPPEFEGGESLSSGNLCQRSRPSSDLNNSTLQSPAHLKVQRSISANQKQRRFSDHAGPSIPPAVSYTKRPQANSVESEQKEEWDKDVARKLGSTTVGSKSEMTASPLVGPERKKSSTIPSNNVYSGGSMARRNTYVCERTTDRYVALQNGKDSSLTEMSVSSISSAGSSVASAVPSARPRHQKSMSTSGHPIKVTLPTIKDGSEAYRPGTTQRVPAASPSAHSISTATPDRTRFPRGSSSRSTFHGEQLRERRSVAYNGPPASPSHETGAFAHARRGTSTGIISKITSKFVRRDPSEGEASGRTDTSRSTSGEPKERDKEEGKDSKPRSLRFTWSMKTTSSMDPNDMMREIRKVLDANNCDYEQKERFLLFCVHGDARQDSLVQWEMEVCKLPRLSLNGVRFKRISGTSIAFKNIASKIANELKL

MKNK1 (human) = MKNK1 (human) (UniProt Q9BUB5)
EPHA2 (human) = EPHA2 (human) (UniProt P29317)
Sequence of EPHA2 (human) (P29317 whole entry, looked up): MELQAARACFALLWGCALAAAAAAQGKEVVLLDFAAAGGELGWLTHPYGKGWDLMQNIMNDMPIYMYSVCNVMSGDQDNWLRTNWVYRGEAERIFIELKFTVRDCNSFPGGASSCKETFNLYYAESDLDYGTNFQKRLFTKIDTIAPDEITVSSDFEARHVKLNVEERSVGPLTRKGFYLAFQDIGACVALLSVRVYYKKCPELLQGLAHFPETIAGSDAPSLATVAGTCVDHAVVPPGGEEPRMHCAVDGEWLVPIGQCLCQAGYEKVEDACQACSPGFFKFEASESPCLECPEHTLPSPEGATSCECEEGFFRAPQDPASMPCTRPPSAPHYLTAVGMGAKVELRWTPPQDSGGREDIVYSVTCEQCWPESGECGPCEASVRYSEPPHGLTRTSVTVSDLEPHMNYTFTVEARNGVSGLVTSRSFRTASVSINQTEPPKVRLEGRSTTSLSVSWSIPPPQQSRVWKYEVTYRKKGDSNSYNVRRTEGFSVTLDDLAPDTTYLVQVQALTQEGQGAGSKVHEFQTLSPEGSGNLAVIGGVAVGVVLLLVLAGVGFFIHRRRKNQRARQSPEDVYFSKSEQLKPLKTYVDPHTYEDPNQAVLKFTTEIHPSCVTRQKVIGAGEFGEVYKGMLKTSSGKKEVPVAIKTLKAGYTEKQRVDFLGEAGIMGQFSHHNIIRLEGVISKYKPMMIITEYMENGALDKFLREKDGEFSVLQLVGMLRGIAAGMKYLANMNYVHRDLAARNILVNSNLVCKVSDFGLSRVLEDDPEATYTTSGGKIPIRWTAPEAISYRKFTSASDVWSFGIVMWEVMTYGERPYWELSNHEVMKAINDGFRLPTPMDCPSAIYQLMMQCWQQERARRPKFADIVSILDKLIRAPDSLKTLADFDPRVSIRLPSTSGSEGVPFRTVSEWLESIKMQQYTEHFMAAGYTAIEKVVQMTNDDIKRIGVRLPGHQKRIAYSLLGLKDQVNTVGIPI

CaMK1 (human) = CaMK1 (human) (UniProt Q14012)
MST4 (human) = MST4 (human) (UniProt Q9P289)
MAPKAPK2 (human) = MAPKAPK2 (human) (UniProt P49137)
CSK (human) = CSK (human) (UniProt P41240)
Sequence of CSK (human) (P41240 whole entry, looked up): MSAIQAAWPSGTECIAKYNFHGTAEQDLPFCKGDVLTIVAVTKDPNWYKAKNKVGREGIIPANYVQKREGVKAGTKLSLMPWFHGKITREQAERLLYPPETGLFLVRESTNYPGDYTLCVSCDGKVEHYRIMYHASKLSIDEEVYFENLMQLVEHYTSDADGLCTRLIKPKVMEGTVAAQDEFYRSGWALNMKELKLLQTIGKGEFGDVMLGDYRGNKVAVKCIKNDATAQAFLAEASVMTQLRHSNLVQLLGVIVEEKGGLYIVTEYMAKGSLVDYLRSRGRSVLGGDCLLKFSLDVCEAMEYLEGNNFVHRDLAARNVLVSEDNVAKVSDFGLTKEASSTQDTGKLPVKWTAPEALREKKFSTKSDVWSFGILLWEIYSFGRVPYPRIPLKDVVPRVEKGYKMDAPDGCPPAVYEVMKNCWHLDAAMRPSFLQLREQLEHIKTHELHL

CDK2 CCNA2 (human) = CDK2 CCNA2 (human) (UniProt P20248+P24941)
CAMKK2 (human) = CAMKK2 (human) (UniProt Q96RR4)
NEK6 (human) = NEK6 (human) (UniProt Q9HC98)
BRSK1 (human) = BRSK1 (human) (UniProt Q8TDC3)
MAP2K1 (human) = MAP2K1 (human) (UniProt Q02750)
HIPK3 (human) = HIPK3 (human) (UniProt Q9H422)
DYRK2 (human) = DYRK2 (human) (UniProt Q92630)
Sequence of DYRK2 (human) (Q92630 whole entry, looked up): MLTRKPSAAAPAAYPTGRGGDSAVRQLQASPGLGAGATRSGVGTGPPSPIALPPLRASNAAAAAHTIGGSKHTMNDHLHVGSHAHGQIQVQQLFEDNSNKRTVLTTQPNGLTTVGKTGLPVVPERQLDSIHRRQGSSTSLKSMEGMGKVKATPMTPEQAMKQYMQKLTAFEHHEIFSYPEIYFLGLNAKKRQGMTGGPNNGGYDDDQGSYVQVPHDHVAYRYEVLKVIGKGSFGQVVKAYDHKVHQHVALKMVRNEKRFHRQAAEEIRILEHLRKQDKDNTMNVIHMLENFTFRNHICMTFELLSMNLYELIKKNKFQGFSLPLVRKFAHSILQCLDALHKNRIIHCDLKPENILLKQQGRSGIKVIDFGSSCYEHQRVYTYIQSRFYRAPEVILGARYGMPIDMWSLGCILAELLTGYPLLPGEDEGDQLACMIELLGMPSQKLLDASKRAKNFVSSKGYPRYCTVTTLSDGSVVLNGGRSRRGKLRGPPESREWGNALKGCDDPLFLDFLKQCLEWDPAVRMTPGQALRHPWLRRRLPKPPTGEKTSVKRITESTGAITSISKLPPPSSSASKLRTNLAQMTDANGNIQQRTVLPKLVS

ERBB4 (human) = ERBB4 (human) (UniProt Q15303); conditions: compound 10.0 µM
BTK (human) = BTK (human) (UniProt Q06187)
RPS6KA5 KD1 KD2 (human) = RPS6KA5 KD1 KD2 (human) (UniProt O75582)
EPHB2 (human) = EPHB2 (human) (UniProt P29323)
PAK7 (human) = PAK7 (human) (UniProt Q9P286)
NUAK1 (human) = NUAK1 (human) (UniProt O60285)
EPHA4 (human) = EPHA4 (human) (UniProt P54764)
NEK2 (human) = NEK2 (human) (UniProt P51955)
LCK (mouse) = conditions: accession and sequence are those of the human protein
PRKACA (human) = PRKACA (human) (UniProt P17612)

Sequence of PHKG1 (human) (Q16816 whole entry, looked up): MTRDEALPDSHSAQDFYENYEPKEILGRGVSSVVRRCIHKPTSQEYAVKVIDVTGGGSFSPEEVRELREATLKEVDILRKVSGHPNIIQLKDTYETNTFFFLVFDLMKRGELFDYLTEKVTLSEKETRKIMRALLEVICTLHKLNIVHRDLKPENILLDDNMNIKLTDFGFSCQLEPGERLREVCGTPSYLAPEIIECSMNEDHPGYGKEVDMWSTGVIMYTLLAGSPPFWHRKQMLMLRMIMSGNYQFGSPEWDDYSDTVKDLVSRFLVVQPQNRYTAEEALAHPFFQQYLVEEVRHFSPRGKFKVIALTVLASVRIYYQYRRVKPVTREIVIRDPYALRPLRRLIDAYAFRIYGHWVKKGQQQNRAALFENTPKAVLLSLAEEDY

O=C(NOC[C@H](O)CO)c1ccc(F)c(F)c1Nc1ccc(I)cc1Cl
residual activity (PHKG1 (human); compound 1.0 µM): 95%
residual activity (PHKG1 (human); compound 10.0 µM): 90%
residual activity (RIPK2 (human); compound 1.0 µM): 99%
residual activity (RIPK2 (human); compound 10.0 µM): 100%
residual activity (MINK1 (human); compound 1.0 µM): 117%
residual activity (MINK1 (human); compound 10.0 µM): 144%
residual activity (PRKAA1 or PRKAA2 (rat); compound 1.0 µM): 110%
residual activity (PRKAA1 or PRKAA2 (rat); compound 10.0 µM): 107%
residual activity (INSRR (human)): 106%
residual activity (MAPK15 (human); compound 1.0 µM): 104%
residual activity (MAPK15 (human); compound 10.0 µM): 96%
residual activity (SRPK1 (human); compound 1.0 µM): 80%
residual activity (SRPK1 (human); compound 10.0 µM): 95%
residual activity (PRKCA (human); compound 1.0 µM): 100%
residual activity (PRKCA (human); compound 10.0 µM): 108%
residual activity (MARK2 (human); compound 1.0 µM): 104%
residual activity (MARK2 (human); compound 10.0 µM): 103%
residual activity (JAK2 JH1 JH2 (human); compound 1.0 µM): 8%
residual activity (JAK2 JH1 JH2 (human); compound 10.0 µM): 9%
residual activity (MARK1 (human); compound 1.0 µM): 85%
residual activity (MARK1 (human); compound 10.0 µM): 85%
residual activity (MKNK1 (human); compound 1.0 µM): 103%
residual activity (MKNK1 (human); compound 10.0 µM): 104%
residual activity (EPHA2 (human); compound 1.0 µM): 86%
residual activity (EPHA2 (human); compound 10.0 µM): 94%
residual activity (CaMK1 (human); compound 1.0 µM): 96%
residual activity (CaMK1 (human); compound 10.0 µM): 91%
residual activity (MST4 (human); compound 1.0 µM): 103%
residual activity (MST4 (human); compound 10.0 µM): 104%
residual activity (MAPKAPK2 (human); compound 1.0 µM): 103%
residual activity (MAPKAPK2 (human); compound 10.0 µM): 102%
residual activity (CSK (human); compound 1.0 µM): 93%
residual activity (CSK (human); compound 10.0 µM): 98%
residual activity (CDK2 CCNA2 (human); compound 1.0 µM): 110%
residual activity (CDK2 CCNA2 (human); compound 10.0 µM): 109%
residual activity (CAMKK2 (human); compound 1.0 µM): 92%
residual activity (CAMKK2 (human); compound 10.0 µM): 94%
residual activity (NEK6 (human); compound 1.0 µM): 95%
residual activity (NEK6 (human); compound 10.0 µM): 110%
residual activity (BRSK1 (human); compound 1.0 µM): 97%
residual activity (BRSK1 (human); compound 10.0 µM): 112%
residual activity (MAP2K1 (human); compound 1.0 µM): 18%
residual activity (MAP2K1 (human); compound 10.0 µM): 2%
residual activity (HIPK3 (human); compound 1.0 µM): 101%
residual activity (HIPK3 (human); compound 10.0 µM): 107%
residual activity (DYRK2 (human); compound 1.0 µM): 99%
residual activity (DYRK2 (human); compound 10.0 µM): 107%
residual activity (ERBB4 (human)): 87%
residual activity (BTK (human); compound 1.0 µM): 110%
residual activity (BTK (human); compound 10.0 µM): 100%
residual activity (RPS6KA5 KD1 KD2 (human); compound 1.0 µM): 97%
residual activity (RPS6KA5 KD1 KD2 (human); compound 10.0 µM): 96%
residual activity (EPHB2 (human); compound 1.0 µM): 64%
residual activity (EPHB2 (human); compound 10.0 µM): 74%
residual activity (PAK7 (human); compound 1.0 µM): 104%
residual activity (PAK7 (human); compound 10.0 µM): 85%
residual activity (NUAK1 (human); compound 1.0 µM): 89%
residual activity (NUAK1 (human); compound 10.0 µM): 107%
residual activity (EPHA4 (human); compound 1.0 µM): 86%
residual activity (EPHA4 (human); compound 10.0 µM): 89%
residual activity (NEK2 (human); compound 1.0 µM): 97%
residual activity (NEK2 (human); compound 10.0 µM): 102%
residual activity (LCK (mouse); compound 1.0 µM): 92%
residual activity (LCK (mouse); compound 10.0 µM): 109%
residual activity (PRKACA (human); compound 1.0 µM): 87%
residual activity (PRKACA (human); compound 10.0 µM): 97%
